From ChEMBL document CHEMBL1201862, “PubChem BioAssay data set” (2004)
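All cell lines were grown in 96-well plates and treated with compound for 48 hours. Here, GI50 denotes the concentration required for 50% inhibition of growth.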 The source made the active and inactive calls. Cut-off read from the data, not from the text of the source: active = GI50 up to about 1.1 µM and inactive = higher.

How the values were obtained:
Experiment in all cases: NCI tumour cell line growth inhibition, 48 h
SK-MEL-2 = test system: SK-MEL-2
SNB-75 = test system: SNB-75
ACHN = test system: ACHN
SNB-78 = test system: SNB-78
CCRF-CEM = test system: CCRF-CEM
SK-OV-3 = test system: SK-OV-3
LOX IMVI = test system: LOX IMVI
A549 = test system: A549
HOP-92 = test system: HOP-92
UACC-62 = test system: UACC-62
K562 = test system: K562
DMS-114 = test system: DMS-114
NCI-H226 = test system: NCI-H226
OVCAR-8 = test system: OVCAR-8
Malme-3M = test system: Malme-3M
HCT-15 = test system: HCT-15
HOP-62 = test system: HOP-62
OVCAR-4 = test system: OVCAR-4
COLO 205 = test system: COLO 205
IGROV-1 = test system: IGROV-1
SW-620 = test system: SW-620
HL-60 = test system: HL-60
SF-295 = test system: SF-295
UO-31 = test system: UO-31
HT-29 = test system: HT-29
SNB-19 = test system: SNB-19
SF-539 = test system: SF-539
HCT-116 = test system: HCT-116
OVCAR-5 = test system: OVCAR-5
A498 = test system: A498
HOP-18 = test system: HOP-18
SF-268 = test system: SF-268
DLD-1 = test system: DLD-1
UACC-257 = test system: UACC-257
NCI-H460 = test system: NCI-H460
M14 = test system: M14
RXF 393 = test system: RXF 393
TK-10 = test system: TK-10
NCI-H23 = test system: NCI-H23
SK-MEL-28 = test system: SK-MEL-28
OVCAR-3 = test system: OVCAR-3
KM-20L2 = test system: KM-20L2
LXFL 529 = test system: LXFL 529
EKVX = test system: EKVX
M19-MEL = test system: M19-MEL
RPMI-8226 = test system: RPMI-8226
NCI-H522 = test system: NCI-H522
786-0 = test system: 786-0
SN12C = test system: SN12C
DMS-273 = test system: DMS-273
U-251 = test system: U-251
MOLT-4 = test system: MOLT-4
KM12 = test system: KM12
HCC 2998 = test system: HCC 2998
SK-MEL-5 = test system: SK-MEL-5
SR = test system: SR
CAKI-1 = test system: CAKI-1

Measured: GI50

CCC1(CC)C(=O)NC(=O)NC1=S
inactive: SK-MEL-2 > 100 µM | SNB-75 > 100 µM | ACHN > 100 µM | SNB-78 > 100 µM | CCRF-CEM > 100 µM | SK-OV-3 > 100 µM | LOX IMVI > 100 µM | A549 > 100 µM | HOP-92 > 100 µM | UACC-62 > 100 µM | K562 > 100 µM | DMS-114 > 100 µM | NCI-H226 > 100 µM | OVCAR-8 > 100 µM | Malme-3M > 100 µM | HOP-62 > 100 µM | OVCAR-4 > 100 µM | COLO 205 > 100 µM | IGROV-1 > 100 µM | SW-620 > 100 µM | HL-60 > 100 µM | SF-295 > 100 µM | UO-31 > 100 µM | HT-29 > 100 µM | SNB-19 > 100 µM | SF-539 > 100 µM | HCT-116 > 100 µM | OVCAR-5 > 100 µM | A498 > 100 µM | HOP-18 > 100 µM | SF-268 > 100 µM | DLD-1 > 100 µM | UACC-257 > 100 µM | NCI-H460 > 100 µM | M14 > 100 µM | RXF 393 > 100 µM | TK-10 > 100 µM | NCI-H23 > 100 µM | SK-MEL-28 > 100 µM | OVCAR-3 > 100 µM | KM-20L2 > 100 µM | LXFL 529 > 100 µM | EKVX > 100 µM | M19-MEL > 100 µM | RPMI-8226 > 100 µM | NCI-H522 > 100 µM | 786-0 > 100 µM | SN12C > 100 µM | DMS-273 > 100 µM | U-251 > 100 µM | MOLT-4 > 100 µM
> 100 µM: HCT-15

O=C(c1ccccc1)c1cn(/N=C\c2ccccc2)c(=O)nc1-c1ccccc1
> 100 µM: HCT-15
inactive: SK-MEL-2 > 100 µM | SNB-75 > 100 µM | ACHN > 100 µM | SNB-78 > 100 µM | CCRF-CEM 70 µM | SK-OV-3 > 100 µM | KM12 > 100 µM | LOX IMVI > 100 µM | A549 > 100 µM | HOP-92 92.9 µM | UACC-62 > 100 µM | K562 > 100 µM | DMS-114 > 100 µM | NCI-H226 > 100 µM | OVCAR-8 > 100 µM | Malme-3M > 100 µM | HOP-62 > 100 µM | OVCAR-4 > 100 µM | COLO 205 > 100 µM | SW-620 > 100 µM | SF-295 > 100 µM | UO-31 > 100 µM | HT-29 > 100 µM | SNB-19 > 100 µM | SF-539 > 100 µM | HCT-116 > 100 µM | OVCAR-5 > 100 µM | A498 > 100 µM | HOP-18 > 100 µM | SF-268 > 100 µM | DLD-1 > 100 µM | UACC-257 > 100 µM | NCI-H460 > 100 µM | M14 > 100 µM | RXF 393 > 100 µM | TK-10 > 100 µM | NCI-H23 > 100 µM | SK-MEL-28 > 100 µM | OVCAR-3 > 100 µM | KM-20L2 > 100 µM | LXFL 529 > 100 µM | EKVX > 100 µM | M19-MEL > 100 µM | NCI-H522 > 100 µM | 786-0 > 100 µM | SN12C > 100 µM | HCC 2998 > 100 µM | SK-MEL-5 > 100 µM | U-251 > 100 µM | MOLT-4 > 100 µM

O=C(Nc1ccc([N+](=O)[O-])cc1Cl)c1cccc([N+](=O)[O-])c1O
inactive: SK-MEL-2 1.6 µM | ACHN 2.52 µM | SNB-78 2.3 µM | CCRF-CEM 1.13 µM | KM12 3.11 µM | LOX IMVI 1.71 µM | A549 2.3 µM | K562 1.12 µM | NCI-H226 2.84 µM | SR 2.9 µM | OVCAR-8 2.61 µM | OVCAR-4 2.82 µM | CAKI-1 1.83 µM | SW-620 2.59 µM | HL-60 1.87 µM | SF-295 1.92 µM | UO-31 1.45 µM | HT-29 3.04 µM | SNB-19 3.09 µM | SF-539 2.05 µM | OVCAR-5 3.02 µM | SF-268 2.7 µM | UACC-257 2.02 µM | NCI-H460 2.21 µM | NCI-H23 1.12 µM | SK-MEL-28 1.6 µM | KM-20L2 2.74 µM | EKVX 2.16 µM | SN12C 1.48 µM | HCC 2998 1.69 µM | U-251 2.75 µM | MOLT-4 1.88 µM
active: Malme-3M 0.552 µM | A498 0.668 µM | HOP-18 0.109 µM | LXFL 529 1.09 µM | RPMI-8226 0.92 µM | NCI-H522 0.755 µM

C=C1CC[C@@H]2C(C)(C)CCC[C@@]2(C)[C@@H]1Cc1cc(O)ccc1O
3.09 µM: HCT-15
active: CCRF-CEM 0.558 µM | MOLT-4 0.912 µM
inactive: SK-MEL-2 2.04 µM | SNB-75 1.95 µM | ACHN 3.56 µM | SNB-78 1.93 µM | SK-OV-3 2.3 µM | KM12 6.18 µM | LOX IMVI 2.16 µM | A549 5.36 µM | HOP-92 2.79 µM | UACC-62 10.4 µM | K562 3.44 µM | DMS-114 1.89 µM | NCI-H226 2.55 µM | SR 2.42 µM | OVCAR-8 3.88 µM | Malme-3M 5.25 µM | HOP-62 9.59 µM | OVCAR-4 1.8 µM | COLO 205 15.9 µM | IGROV-1 2.13 µM | CAKI-1 8.26 µM | SW-620 8.43 µM | HL-60 1.53 µM | SF-295 10.2 µM | UO-31 2.52 µM | HT-29 16.5 µM | SNB-19 6.24 µM | SF-539 1.93 µM | HCT-116 4.62 µM | OVCAR-5 15.1 µM | A498 13.7 µM | HOP-18 11.2 µM | SF-268 3.38 µM | DLD-1 5.21 µM | UACC-257 1.93 µM | NCI-H460 14 µM | M14 11.8 µM | RXF 393 1.67 µM | TK-10 3.17 µM | NCI-H23 5.97 µM | SK-MEL-28 2.56 µM | OVCAR-3 5.31 µM | KM-20L2 17.3 µM | LXFL 529 2.11 µM | EKVX 4.65 µM | M19-MEL 3.56 µM | RPMI-8226 3.14 µM | NCI-H522 1.84 µM | 786-0 3.4 µM | SN12C 4.27 µM | HCC 2998 13.8 µM | DMS-273 5.92 µM | SK-MEL-5 7.06 µM | U-251 3.72 µM
